Target: T1, chimeric human H3 receptor (Homo sapiens, UniProt Q9Y5N1)
T1 construct: rat Galpha-i2 (Gnai2, rat); made in house; host or cells: Sf9 insect cells (baculovirus); P2 membranes
Experiment: Chimeric human H3 receptor screening GTP binding assay (inhibition of histamine-stimulated GTP-gamma35S binding, Example 8)
Format: biochemical
Conditions: 1 h; assay of Example 8; symbol "!" in column headed Ki; read-out: percent inhibition of agonist-induced GTP-gammaS binding to H3
Method in brief: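 Compound tested at 4 μM against 1 μM histamine stimulation; 125 pM GTP-gamma35S binding measured by filtration and scintillation after 60 min at room temperature. Membranes from Sf9 cells expressing chimeric human H3 plus G-protein subunits, in Tris pH 7.4/NaCl/MgCl2/GDP buffer; values are % inhibition after nonspecific subtraction.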

T1 sequence (Q9Y5N1 with tags, fused parts or gaps): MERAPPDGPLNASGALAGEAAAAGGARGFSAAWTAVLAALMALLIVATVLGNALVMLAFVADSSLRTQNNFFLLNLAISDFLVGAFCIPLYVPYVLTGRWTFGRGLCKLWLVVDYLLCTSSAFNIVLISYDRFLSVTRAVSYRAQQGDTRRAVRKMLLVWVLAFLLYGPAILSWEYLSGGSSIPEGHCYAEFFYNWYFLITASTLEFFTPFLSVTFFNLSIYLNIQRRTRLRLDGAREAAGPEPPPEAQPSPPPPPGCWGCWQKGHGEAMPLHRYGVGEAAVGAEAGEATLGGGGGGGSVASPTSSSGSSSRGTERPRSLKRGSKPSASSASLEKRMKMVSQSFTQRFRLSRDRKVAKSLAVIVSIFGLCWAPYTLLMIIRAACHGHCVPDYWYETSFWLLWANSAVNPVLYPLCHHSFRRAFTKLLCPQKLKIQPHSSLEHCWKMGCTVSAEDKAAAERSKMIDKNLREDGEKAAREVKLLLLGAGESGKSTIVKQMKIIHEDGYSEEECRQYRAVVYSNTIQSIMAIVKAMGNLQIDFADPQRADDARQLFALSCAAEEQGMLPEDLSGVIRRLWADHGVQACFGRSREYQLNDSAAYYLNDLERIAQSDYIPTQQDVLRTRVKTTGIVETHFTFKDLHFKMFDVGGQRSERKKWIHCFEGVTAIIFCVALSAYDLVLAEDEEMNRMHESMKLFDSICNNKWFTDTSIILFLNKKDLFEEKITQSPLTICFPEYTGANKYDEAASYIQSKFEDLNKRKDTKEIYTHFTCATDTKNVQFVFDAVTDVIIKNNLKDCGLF

SMILES | inhibition at 4 µM
c1cc(N2CCCC2)ncc1CN1CCc2cnc(N3CCN(C4CCC4)CC3)nc2CC1 [Compound 263, 2-(4-cyclobutylpiperazin-1-yl)-7-[(6-pyrrolidin-1-ylpyridin-3-yl)methyl]-6,7,8,9-tetrahydro-5H-pyrimido[4,5-d]azepine] | ≥ 90%
Cc1c(F)cccc1CN1CCc2cnc(N3CCN(C4CCC4)CC3)nc2CC1 [Compound 264, 2-(4-cyclobutylpiperazin-1-yl)-7-(3-fluoro-2-methylbenzyl)-6,7,8,9-tetrahydro-5H-pyrimido[4,5-d]azepine] | ≥ 90%
Clc1ccccc1CN1CCc2cnc(N3CCN(C4CCC4)CC3)nc2CC1 [Compound 265, 7-(2-chlorobenzyl)-2-(4-cyclobutylpiperazin-1-yl)-6,7,8,9-tetrahydro-5H-pyrimido[4,5-d]azepine] | ≥ 90%
Clc1ccc(CN2CCc3cnc(N4CCN(C5CCC5)CC4)nc3CC2)c(Cl)c1 [Compound 266, 2-(4-cyclobutylpiperazin-1-yl)-7-(2,4-dichlorobenzyl)-6,7,8,9-tetrahydro-5H-pyrimido[4,5-d]azepine] | ≥ 90%
c1cc(N2CCCC2)ccc1CN1CCc2cnc(N3CCN(C4CCC4)CC3)nc2CC1 [Compound 267, 2-(4-cyclobutylpiperazin-1-yl)-7-(4-pyrrolidin-1-ylbenzyl)-6,7,8,9-tetrahydro-5H-pyrimido[4,5-d]azepine] | ≥ 90%
COc1nc(N2CCN(C3CCC3)CC2)nc2c1CCN(C(=O)c1ccccc1)CC2 [Compound 270, 7-benzoyl-2-(4-cyclobutylpiperazin-1-yl)-4-methoxy-6,7,8,9-tetrahydro-5H-pyrimido[4,5-d]azepine] | ≥ 90%
c1nc2c(c(N3CCN(C4CCC4)CC3)n1)CCN(CC1CCOCC1)CC2 [Compound 271, 4-(4-cyclobutylpiperazin-1-yl)-7-(tetrahydro-2H-pyran-4-ylmethyl)-6,7,8,9-tetrahydro-5H-pyrimido[4,5-d]azepine] | ≥ 90%
c1nc(N2CCN(C3CCC3)CC2)nc2c1CCN(CC1CCOCC1)CC2 [Compound 272, 2-(4-cyclobutylpiperazin-1-yl)-7-(tetrahydro-2H-pyran-4-ylmethyl)-6,7,8,9-tetrahydro-5H-pyrimido[4,5-d]azepine] | ≥ 90%
CCOc1ccc(CC(=O)N2CCc3cnc(N4CCN(C5CCC5)CC4)nc3CC2)cc1OC [Compound 275, 2-(4-cyclobutylpiperazin-1-yl)-7-[(4-ethoxy-3-methoxyphenyl)acetyl]-6,7,8,9-tetrahydro-5H-pyrimido[4,5-d]azepine] | ≥ 90%
COc1cc(CC(=O)N2CCc3cnc(N4CCN(C5CCC5)CC4)nc3CC2)cc(OC)c1OC [Compound 276, 2-(4-cyclobutylpiperazin-1-yl)-7-[(3,4,5-trimethoxyphenyl)acetyl]-6,7,8,9-tetrahydro-5H-pyrimido[4,5-d]azepine] | ≥ 90%
O=C(Cc1ccc2c(c1)OCO2)N1CCc2cnc(N3CCN(C4CCC4)CC3)nc2CC1 [Compound 277, 7-(1,3-benzodioxol-5-ylacetyl)-2-(4-cyclobutylpiperazin-1-yl)-6,7,8,9-tetrahydro-5H-pyrimido[4,5-d]azepine] | ≥ 90%
COc1cc(CC(=O)N2CCc3cnc(N4CCN(C5CCC5)CC4)nc3CC2)cc(OC)c1 [Compound 280, 2-(4-cyclobutylpiperazin-1-yl)-7-[(3,5-dimethoxyphenyl)acetyl]-6,7,8,9-tetrahydro-5H-pyrimido[4,5-d]azepine] | ≥ 90%
COc1ccc(CC(=O)N2CCc3cnc(N4CCN(C5CCC5)CC4)nc3CC2)cc1OC [Compound 281, 2-(4-cyclobutylpiperazin-1-yl)-7-[(3,4-dimethoxyphenyl)acetyl]-6,7,8,9-tetrahydro-5H-pyrimido[4,5-d]azepine] | ≥ 90%
O=C(Cc1cccc(Oc2ccccc2)c1)N1CCc2cnc(N3CCN(C4CCC4)CC3)nc2CC1 [Compound 282, 2-(4-cyclobutylpiperazin-1-yl)-7-[(3-phenoxyphenyl)acetyl]-6,7,8,9-tetrahydro-5H-pyrimido[4,5-d]azepine] | ≥ 90%
O=C(Cc1ccc(Oc2ccccc2)cc1)N1CCc2cnc(N3CCN(C4CCC4)CC3)nc2CC1 [Compound 283, 2-(4-cyclobutylpiperazin-1-yl)-7-[(4-phenoxyphenyl)acetyl]-6,7,8,9-tetrahydro-5H-pyrimido[4,5-d]azepine] | ≥ 90%

Results, then the compound that gave them:

inhibition at 4 µM | SMILES
≥ 90% | N#Cc1ccc(C(=O)N2CCc3cnc(N4CCN(C5CCC5)CC4)nc3CC2)cc1 [Compound 268, 4-{[2-(4-cyclobutylpiperazin-1-yl)-5,6,8,9-tetrahydro-7H-pyrimido[4,5-d]azepin-7-yl]carbonyl}benzonitrile]
≥ 90% | O=C(c1ccc(C(F)(F)F)cc1)N1CCc2cnc(N3CCN(C4CCC4)CC3)nc2CC1 [Compound 269, 2-(4-cyclobutylpiperazin-1-yl)-7-[4-(trifluoromethyl)benzoyl]-6,7,8,9-tetrahydro-5H-pyrimido[4,5-d]azepine]
≥ 90% | COc1cccc(CC(=O)N2CCc3cnc(N4CCN(C5CCC5)CC4)nc3CC2)c1 [Compound 273, 2-(4-cyclobutylpiperazin-1-yl)-7-[(3-methoxyphenyl)acetyl]-6,7,8,9-tetrahydro-5H-pyrimido[4,5-d]azepine]
≥ 90% | COc1ccc(CC(=O)N2CCc3cnc(N4CCN(C5CCC5)CC4)nc3CC2)cc1 [Compound 274, 2-(4-cyclobutylpiperazin-1-yl)-7-[(4-methoxyphenyl)acetyl]-6,7,8,9-tetrahydro-5H-pyrimido[4,5-d]azepine]
≥ 90% | O=C(Cc1ccc(OC(F)(F)F)cc1)N1CCc2cnc(N3CCN(C4CCC4)CC3)nc2CC1 [Compound 278, 2-(4-cyclobutylpiperazin-1-yl)-7-{[4-(trifluoromethoxy)phenyl]acetyl}-6,7,8,9-tetrahydro-5H-pyrimido[4,5-d]azepine]
≥ 90% | O=C(Cc1cccc(OC(F)(F)F)c1)N1CCc2cnc(N3CCN(C4CCC4)CC3)nc2CC1 [Compound 279, 2-(4-cyclobutylpiperazin-1-yl)-7-{[3-(trifluoromethoxy)phenyl]acetyl}-6,7,8,9-tetrahydro-5H-pyrimido[4,5-d]azepine]
≥ 90% | O=C(Cc1cccc(Cl)c1)N1CCc2cnc(N3CCN(C4CCC4)CC3)nc2CC1 [Compound 284, 7-[(3-chlorophenyl)acetyl]-2-(4-cyclobutylpiperazin-1-yl)-6,7,8,9-tetrahydro-5H-pyrimido[4,5-d]azepine]
≥ 90% | O=C(Cc1ccc(Cl)cc1)N1CCc2cnc(N3CCN(C4CCC4)CC3)nc2CC1 [Compound 285, 7-[(4-chlorophenyl)acetyl]-2-(4-cyclobutylpiperazin-1-yl)-6,7,8,9-tetrahydro-5H-pyrimido[4,5-d]azepine]
≥ 90% | O=C(Cc1ccc(F)cc1F)N1CCc2cnc(N3CCN(C4CCC4)CC3)nc2CC1 [Compound 286, 2-(4-cyclobutylpiperazin-1-yl)-7-[(2,4-difluorophenyl)acetyl]-6,7,8,9-tetrahydro-5H-pyrimido[4,5-d]azepine]
≥ 90% | O=C(Cc1ccc(C(F)(F)F)cc1)N1CCc2cnc(N3CCN(C4CCC4)CC3)nc2CC1 [Compound 287, 2-(4-cyclobutylpiperazin-1-yl)-7-{[4-(trifluoromethyl)phenyl]acetyl}-6,7,8,9-tetrahydro-5H-pyrimido[4,5-d]azepine]
≥ 90% | O=C(Cc1cccc(C(F)(F)F)c1)N1CCc2cnc(N3CCN(C4CCC4)CC3)nc2CC1 [Compound 288, 2-(4-cyclobutylpiperazin-1-yl)-7-{[3-(trifluoromethyl)phenyl]acetyl}-6,7,8,9-tetrahydro-5H-pyrimido[4,5-d]azepine]
≥ 90% | O=C(Cc1cccc(Br)c1)N1CCc2cnc(N3CCN(C4CCC4)CC3)nc2CC1 [Compound 289, 7-[(3-bromophenyl)acetyl]-2-(4-cyclobutylpiperazin-1-yl)-6,7,8,9-tetrahydro-5H-pyrimido[4,5-d]azepine]
≥ 90% | O=C(Cc1ccc(Br)cc1)N1CCc2cnc(N3CCN(C4CCC4)CC3)nc2CC1 [Compound 290, 7-[(4-bromophenyl)acetyl]-2-(4-cyclobutylpiperazin-1-yl)-6,7,8,9-tetrahydro-5H-pyrimido[4,5-d]azepine]
≥ 90% | O=C(Cc1c(F)cccc1F)N1CCc2cnc(N3CCN(C4CCC4)CC3)nc2CC1 [Compound 291, 2-(4-cyclobutylpiperazin-1-yl)-7-[(2,6-difluorophenyl)acetyl]-6,7,8,9-tetrahydro-5H-pyrimido[4,5-d]azepine]
≥ 90% | O=C(Cc1cccc(C(F)(F)F)c1F)N1CCc2cnc(N3CCN(C4CCC4)CC3)nc2CC1 [Compound 292, 2-(4-cyclobutylpiperazin-1-yl)-7-{[2-fluoro-3-(trifluoromethyl)phenyl]acetyl}-6,7,8,9-tetrahydro-5H-pyrimido[4,5-d]azepine]
≥ 90% | O=C(Cc1ccc(Cl)c(Cl)c1)N1CCc2cnc(N3CCN(C4CCC4)CC3)nc2CC1 [Compound 293, 2-(4-cyclobutylpiperazin-1-yl)-7-[(3,4-dichlorophenyl)acetyl]-6,7,8,9-tetrahydro-5H-pyrimido[4,5-d]azepine]
≥ 90% | O=C(Cc1ccccc1Cl)N1CCc2cnc(N3CCN(C4CCC4)CC3)nc2CC1 [Compound 294, 7-[(2-chlorophenyl)acetyl]-2-(4-cyclobutylpiperazin-1-yl)-6,7,8,9-tetrahydro-5H-pyrimido[4,5-d]azepine]
≥ 90% | O=C(Cc1ccccc1C(F)(F)F)N1CCc2cnc(N3CCN(C4CCC4)CC3)nc2CC1 [Compound 295, 2-(4-cyclobutylpiperazin-1-yl)-7-{[2-(trifluoromethyl)phenyl]acetyl}-6,7,8,9-tetrahydro-5H-pyrimido[4,5-d]azepine]

From patent publication US20080051387A1, “TETRAHYDROPYRIDO[3,4-D]PYRIMIDINES AND RELATED ANALOGUES” (priority 2006, published 2008)
